# Data: patent US9540384B2, “Pyrrolidino heterocycles” (Hoffmann-La Roche Inc., priority 2012, dated 2017)
# Molecular target: human PDE10A full length (Homo sapiens (Human), UniProt Q9Y233)
# Test: human PDE10A full length Scintillation Proximity Assay (SPA)
# Format: biochemical
# Settings: PDE10A enzyme, 50 nM cGMP + 50 nM [3H]-cGMP, 20 minutes at room temperature
# Description: The following test was carried out in order to determine the activity of the compounds of the present invention. PDE10 activity of the compounds of the present invention was determined using a Scintillation Proximity Assay (SPA)-based method similar to the one previously described (Fawcett, L. et al., Proc Natl Acad Sci USA (2000) 97(7):3702-3707).
# The human PDE10A full length assay was performed in 96-well micro titer plates. The reaction mixture of 50 μl contained 20 mM HEPES pH=7.5/10 mM MgCl2/0.05 mg/ml BSA (Sigma cat. #A-7906), 50 nM cGMP (Sigma, cat. #G6129) and 50 nM [3H]-cGMP (GE Healthcare, cat. #TRK392 S.A. 13.2 Ci/mmol), 3.75 ng/well PDE10A enzyme (Enzo Life Science, Lausen, Switzerland cat #SE-534) with or without a specific test compound. A range of concentrations of the potential inhibitor was used to generate data for calculating the concentration of inhibitor resulting in 50% of the effect (e.g. IC50, the concentration of the competitor inhibiting PDE10A activity by 50%). Non-specific activity was tested without the enzyme. The reaction was initiated by the addition of the substrate solution (cGMP and [3H]-cGMP) and allowed to progress for 20 minutes at room temperature. The reaction was terminated by adding 25 μl of YSi-SPA scintillation beads (GE Healthcare, cat. #RPNQ0150) in 18 mM zinc sulphate solution (stop reagent). After 1 h under shaking, the plate was centrifuged one minute at 170 g to allow beads to settle. Afterwards, radioactive counts were measured on a Perkin Elmer TopCount Scintillation plate reader.
# Chain of human PDE10A full length (Q9Y233 other isoform, or with tags, fused parts or gaps): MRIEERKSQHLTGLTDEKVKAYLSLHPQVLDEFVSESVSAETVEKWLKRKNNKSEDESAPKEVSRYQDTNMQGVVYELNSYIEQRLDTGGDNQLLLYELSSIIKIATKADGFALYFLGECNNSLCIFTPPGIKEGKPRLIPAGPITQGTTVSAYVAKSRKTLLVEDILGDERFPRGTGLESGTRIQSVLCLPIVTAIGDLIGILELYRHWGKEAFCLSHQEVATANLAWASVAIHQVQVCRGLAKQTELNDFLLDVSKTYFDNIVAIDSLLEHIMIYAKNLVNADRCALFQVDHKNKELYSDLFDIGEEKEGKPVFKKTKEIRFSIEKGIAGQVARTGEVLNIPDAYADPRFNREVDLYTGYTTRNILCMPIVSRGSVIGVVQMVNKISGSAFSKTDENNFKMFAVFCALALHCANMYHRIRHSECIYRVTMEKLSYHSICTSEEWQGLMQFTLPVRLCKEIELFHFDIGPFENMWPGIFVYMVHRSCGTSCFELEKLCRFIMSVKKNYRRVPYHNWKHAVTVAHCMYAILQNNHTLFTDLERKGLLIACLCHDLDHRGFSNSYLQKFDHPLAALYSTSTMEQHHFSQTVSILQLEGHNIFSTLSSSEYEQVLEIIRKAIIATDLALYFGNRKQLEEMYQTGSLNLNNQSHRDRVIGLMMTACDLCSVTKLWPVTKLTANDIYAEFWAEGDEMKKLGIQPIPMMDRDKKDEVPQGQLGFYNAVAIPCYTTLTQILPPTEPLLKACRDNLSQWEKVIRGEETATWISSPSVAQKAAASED
row,SMILES,IC50
1,"CN(C)c1cccc(/C=C/c2nc(N(C)C)c3cc(Cl)ccc3n2)n1 [Example 41, (E)-6-Chloro-2-(2-(6-(dimethylamino)pyridin-2-yl)vinyl)-N,N-dimethylquinazolin-4-amine]",750 nM
2,"CN(C)c1cccc(CCc2nc(N(C)C)c3cc(Cl)ccc3n2)n1 [Example 42, 6-Chloro-2-(2-(6-(dimethylamino)pyridin-2-yl)ethyl)-N,N-dimethyl-quinazolin-4-amine]",1680 nM
3,"Cc1ncc(C)n2nc(/C=C/c3cccc(N4CCCC4)n3)nc12 [Example 43, (E)-5,8-Dimethyl-2-(2-(6-(pyrrolidin-1-yl)pyridin-2-yl)vinyl)[1,2,4]triazolo[1,5-a]pyrazine]",12 nM
4,"Cc1nc2ccc(OCc3cccc(N4CCCC4)n3)nn2c1C [Example 44, 2,3-Dimethyl-6-((6-(pyrrolidin-1-yl)pyridin-2-yl)methoxy)imidazo[1,2-b]pyridazine]",160 nM
5,"Cc1ncc(C)n2nc(CCc3cccc(N4CCCC4)n3)nc12 [Example 45, 5,8-Dimethyl-2-(2-(6-(pyrrolidin-1-yl)pyridin-2-yl)ethyl)-[1,2,4]triazolo-[1,5-a]pyrazine]",4.5 nM
6,"Cc1cc(C)n2nc(CCc3cncc(N4CCCC4)n3)nc2n1 [Example 46, 5,7-Dimethyl-2-(2-(6-(pyrrolidin-1-yl)pyrazin-2-yl)ethyl)-[1,2,4]triazolo-[1,5-a]pyrimidine]",300 nM
7,"Cc1cc(C)n2nc(/C=C/c3cccc(N4CCCC4)n3)nc2n1 [Example 47, (E)-5,7-Dimethyl-2-(2-(6-(pyrrolidin-1-yl)pyridin-2-yl)vinyl)[1,2,4]triazolo[1,5-a]pyrimidine]",31 nM
8,"Cc1cc(C)n2nc(CCc3cccc(N4CCCC4)n3)nc2n1 [Example 48, 5,7-Dimethyl-2-[2-(6-pyrrolidin-1-yl-pyridin-2-yl)-ethyl]-[1,2,4]triazolo[1,5-a]pyrimidine]",110 nM
9,"Cc1nc2ccc(CCc3cccc(N4CCCC4)n3)nn2c1C [Example 49, 2,3-Dmethyl-6-(2-(6-(pyrrolidin-1-yl)pyridin-2-yl)ethyl)imidazo[1,2-b]pyridazine]",630 nM
10,"Cc1ncc(C)n2nc(/C=C/c3cncc(N4CCCC4)n3)nc12 [Example 50, (E)-5,8-Dim ethyl-2-(2-(6-(pyrrolidin-1-yl)pyrazin-2-yl)vinyl)[1,2,4]triazolo[1,5-a]pyrazine]",18 nM
11,"Cc1ncc(C)n2nc(CCc3cncc(N4CCCC4)n3)nc12 [Example 51, 5,8-Dimethyl-2-(2-(6-(pyrrolidin-1-yl)pyrazin-2-yl)ethyl)-[1,2,4]triazolo[1,5-a]pyrazine]",140 nM
12,"CCc1nc2ccc(OCc3cccc(N4CCCC4)n3)nn2c1C [Example 52, 2-Ethyl-3-methyl-6-((6-(pyrrolidin-1-yl)pyridin-2-yl)methoxy)imidazo[1,2-b]pyridazine]",540 nM
13,"Cc1nn2ccc(OCc3cccc(N4CCCC4)n3)nc2c1C [Example 53, 2,3-Dimethyl-5-((6-(pyrrolidin-1-yl)pyridin-2-yl)methoxy)pyrazolo[1,5-a]pyrimidine]",69 nM
14,"Cc1cn2nc(OCc3cccc(N4CCCC4)n3)ccc2n1 [Example 54, 2-Methyl-6-((6-(pyrrolidin-1-yl)pyridin-2-yl)methoxy)imidazo[1,2-b]pyridazine]",260 nM
15,"c1cc(COc2ccc3nc(C4CC4)cn3n2)nc(N2CCCC2)c1 [Example 55, 2-Cyclopropyl-6-((6-(pyrrolidin-1-yl)pyridin-2-yl)methoxy)imidazo[1,2-b]pyridazine]",600 nM
16,"Cc1c(C(N)=O)nc2ccc(OCc3cccc(N4CCCC4)n3)nn12 [Example 56, 3-Methyl-6-((6-(pyrrolidin-1-yl)pyridin-2-yl)methoxy)imidazo[1,2-b]pyridazine-2-carboxamide]",1050 nM
17,"Cc1c(C(F)(F)F)nc2ccc(NCc3cccc(N4CCCC4)n3)nn12 [Example 57, 3-Methyl-N-((6-(pyrrolidin-1-yl)pyridin-2-yl)methyl)-2-(trifluoromethyl)imidazo[1,2-b]pyridazin-6-amine]",200 nM
18,"Cc1nn2ccc(CCc3cccc(N4CCCC4)n3)nc2c1C [Example 58, 2,3-Dimethyl-5-(2-(6-(pyrrolidin-1-yl)pyridin-2-yl)ethyl)pyrazolo[1,5-a]pyrimidine]",300 nM
